Measurements from PubChem BioAssay AID812 (SRMLSC, 2007).
Calls of active or inactive are those of the source. How the calls were made is not given here.

These compounds were tested on Saccharomyces cerevisiae lifespan extension, no nicotinamide (assay: yeast lifespan extension without nicotinamide, confirmation, yeast lifespan extension project, S. cerevisiae (AID 812);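 further: growth read as optical density after 42 hours of incubation at 30C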).
For `Cc1cccc(N2C(=O)/C(=C\c3ccc(OC(F)F)cc3)c3ccccc3C2=O)c1`, the EC50 was > 40 µM (inactive).
In the case of `Oc1ccc2ccccc2c1/C=N/c1nccs1`, the EC50 is reported as > 40 µM (inactive).
With `C=CCn1c(O)c(C(CC)=NCCN2CCOCC2)c(=O)[nH]c1=O` the EC50 was > 40 µM (inactive).
In the case of `CC(=O)C(C(C)=O)c1c(Cl)c(O)c(O)c2c(C(=O)c3ccccc3)coc12`, the EC50 is reported as > 40 µM (inactive).
For `COc1cc(OC)cc(-c2nc3ccccc3c(=O)n2OC(=O)c2ccccc2C)c1`, the EC50 was > 40 µM (inactive).
For `CCCN1C(=O)/C(=C/c2ccncc2)SC1=S`, the EC50 was > 40 µM (inactive).
With `CCOc1ccc2nc(NCCNC(=O)Nc3ccccc3)c(C#N)cc2c1` the EC50 was > 40 µM (inactive).
`CCc1ccc2nc(N3C(=O)C(O)=C(C(=O)c4ccco4)C3c3cccs3)sc2c1` (stereo not given) was tested, and the EC50 was > 40 µM (inactive).
`CCc1ccc2c(c1)CCCN2C(=O)c1ccccc1C(=O)O` was tested, and the EC50 was > 40 µM (inactive).
In the case of `CC(=O)[C@H]1[C@H](c2cccc(Cl)c2)C(C#N)(C#N)[C@@H]2c3ccccc3C=CN21`, the EC50 is reported as > 40 µM (inactive).
For `Cc1cc(C)n(-c2ccc(OCC(=O)O)nn2)n1`, the EC50 was > 40 µM (inactive).
With `COc1ccc(CCN2C(=O)C(O)=C(C(=O)c3ccco3)C2c2cccs2)cc1OC` (stereo not given) the EC50 was > 40 µM (inactive).
For `CC(=O)Nc1c(O)nc(SCc2ccccc2C#N)[nH]c1=O`, the EC50 was > 40 µM (inactive).
With `CCCC(=Nc1ccc(N)cc1)C1=C(O)C(C(=O)OC)C(C)(C)CC1=O` (stereo not given) the EC50 was > 40 µM (inactive).
For `Cc1ccc(N/C(C(Cl)=C(Cl)Cl)=C(/Cl)[N+](=O)[O-])c(C)c1`, the EC50 was > 40 µM (inactive).
In the case of `O=C1Nc2ccccc2C12OCC1(CO2)COC2(OC1)C(=O)Nc1ccccc12` (stereo not given), the EC50 is reported as > 40 µM (inactive).
For `O=C1C=CCC(/C=C/c2ccccc2)O1` (stereo not given), the EC50 was > 40 µM (inactive).
In the case of `CC(c1ccco1)N(C(=O)c1ccccc1NS(=O)(=O)c1cc([N+](=O)[O-])ccc1Cl)c1ccccn1` (stereo not given), the EC50 is reported as > 40 µM (inactive).
In the case of `CC(C)c1noc2ncc(C(=O)c3cc(Cl)cc(Cl)c3O)cc12`, the EC50 is reported as > 40 µM (inactive).
For `CN(C)C1(c2nnnn2CCOC(=O)Nc2ccc(Cl)cc2)CCCCC1`, the EC50 was > 40 µM (inactive).
In the case of `CC(C)(C)C(=O)/C(=C/c1cccc([N+](=O)[O-])c1)n1cncn1`, the EC50 is reported as > 40 µM (inactive).
In the case of `Oc1ccc(Br)cc1C=Nc1ccc2[nH]ncc2c1`, the EC50 is reported as > 40 µM (inactive).
In the case of `O=C1ON=C(c2ccccc2)/C1=C/c1ccc(-c2ccccc2[N+](=O)[O-])o1`, the EC50 is reported as > 40 µM (inactive).
In the case of `O=[N+]([O-])c1cc(S(=O)(=O)N2CCCCCC2)ccc1F`, the EC50 is reported as > 40 µM (inactive).
`CCOC(=O)CCCNC(=O)COc1ccccc1C#N` was tested, and the EC50 was > 40 µM (inactive).
In the case of `CC(=O)Oc1ccccc1N1C(=O)c2ccc(C(=O)O)cc2C1=O`, the EC50 is reported as > 40 µM (inactive).
With `CCCCCSc1nc2c(c(=O)[nH]c(=O)n2C)n1C` the EC50 was > 40 µM (inactive).
For `CCn1ncc(/C=N/NC(=O)c2ccc3c(c2)OCO3)c1C`, the EC50 was > 40 µM (inactive).
For `CCC(=O)N1CCN(CCN=CC2=C(O)CC(c3cccs3)CC2=O)CC1` (stereo not given), the EC50 was > 40 µM (inactive).
For `Cc1ccc(C(=O)/C=C\C(=O)c2ccc(C)cc2)cc1`, the EC50 was > 40 µM (inactive).
In the case of `CCOc1cc(Br)c(Br)c(C=Nc2ccc(NC(C)=O)cc2)c1O`, the EC50 is reported as > 40 µM (inactive).
For `CCCc1[nH]nc2c1C(c1ccc(Br)s1)C(C#N)=C(N)O2` (stereo not given), the EC50 was > 40 µM (inactive).
For `CCOC(=O)C1=C(C)Nc2nc(=S)[nH]n2C1c1ccc(Cl)cc1` (stereo not given), the EC50 was > 40 µM (inactive).
`C=C(C)CN(CC)C(=O)COc1ccc(S(=O)(=O)Nc2ccc(OC)cc2)cc1` was tested, and the EC50 was > 40 µM (inactive).
In the case of `Cc1ccc(N2NC(=O)/C(=C\c3cc4c(cc3[N+](=O)[O-])OCO4)C2=O)cc1C`, the EC50 is reported as > 40 µM (inactive).
With `O=C(c1ccccc1)c1nc2ccccc2[nH]c1=O` the EC50 was > 40 µM (inactive).
With `CC(C)(C)OC(=O)[C@H]1[C@H](c2ccc([N+](=O)[O-])cc2)C2(C(=O)c3ccccc3C2=O)C2c3ccccc3C=NN21` (stereo not given in full) the EC50 was > 40 µM (inactive).
With `CCOC(=O)c1c(NC(=O)C2C3C=CC(C3)C2C(=O)O)sc2c1CCC(CC)C2` (stereo not given) the EC50 was > 40 µM (inactive).
In the case of `COc1ccccc1-c1c(C)oc2cc(OC(=O)c3ccco3)ccc2c1=O`, the EC50 is reported as > 40 µM (inactive).
With `Cc1c(NC(=O)C(=O)/C=C(/O)c2ccccc2)c(=O)n(-c2ccccc2)n1C` the EC50 was > 40 µM (inactive).
In the case of `CCNCCNC(=O)c1c(O)c2cccc3c2n(c1=O)CCC3`, the EC50 is reported as > 40 µM (inactive).
With `C/C(=N\NC(=O)c1ccccc1O)C1C(=O)c2ccccc2C1=O` the EC50 was > 40 µM (inactive).
For `CC1CCc2cc(F)cc3c(O)c(C(=O)NCc4ccco4)c(=O)n1c23` (stereo not given), the EC50 was > 40 µM (inactive).
With `CC(=O)N1CCN(CCN=CC2=C(O)CC(c3cccs3)CC2=O)CC1` (stereo not given) the EC50 was > 40 µM (inactive).
For `CCc1nnc(N2C(=O)c3ccc(Oc4ccc([N+](=O)[O-])cc4)cc3C2=O)s1`, the EC50 was > 40 µM (inactive).
With `CCN(CC)Cc1c(O)c(Cl)cc2c(C)c(C)c(=O)oc12` the EC50 was > 40 µM (inactive).
`Cn1c(=O)c2c(nc(Br)n2Cc2ccc3ccccc3c2)n(C)c1=O` was tested, and the EC50 was > 40 µM (inactive).
In the case of `O=C(CCN1CCCCCC1)Nc1ccc(F)cc1`, the EC50 is reported as > 40 µM (inactive).
With `COCCOC(=O)/C(=C/c1ccc(OC(=O)c2ccccc2)cc1)C(C)=O` the EC50 was > 40 µM (inactive).
For `O=C1c2ccccc2-c2onc3c(Oc4ccccc4)cc(O)c1c23`, the EC50 was > 40 µM (inactive).
